In the PolyMetriX glass transition set one finds glass transition temperature data, which are given here for 83 compounds.

`*=Nc1cccc(/N=C(\c2ccccc2)c2ccc(C(=*)c3ccccc3)cc2)c1` (repeat unit): the glass transition temperature worked out at 179.00 °C.

Regarding `*C#Cc1cc(C(C)(C)C)cc2c3cc(C(C)(C)C)cc(*)c3n(CCCCCCCCCCCCCCCC)c12` (repeat unit), the glass transition temperature was 80.00 °C.

As to `*C#Cc1cccc(C#C[Si](*)(C)C)c1` (repeat unit), the glass transition temperature is 50.00 °C.

Regarding `*C(=O)c1ccc2c(c1)/C(=N\c1ccc(Oc3cccc(/N=C4/OC(=O)c5ccc(*)cc54)c3)cc1)OC2=O` (repeat unit), the glass transition temperature was found to be 253.00 °C.

`*CC(*)C(=O)NCCC[N+](C)(C)CCCS(=O)(=O)O` (repeat unit) displayed a glass transition temperature of 141.50 °C.

Take `*CC(*)C(=O)Nc1ccccc1Cl` (repeat unit): the glass transition temperature turned out to be 63.00 °C.

Compound `*CC(*)C(=O)OC(C)C` (repeat unit) came in with a glass transition temperature of -5.00 °C.

As to `*CC(*)C(=O)OC(CC)CC` (repeat unit), the glass transition temperature is -6.00 °C.

Consider `*CC(*)C(=O)OC12CC3CC(CC(C3)C1)C2` (repeat unit), for which the glass transition temperature came to 183.00 °C.

For the compound `*CC(*)C(=O)OC1CC(C)CC(C)(C)C1` (repeat unit), the glass transition temperature turned out to be 15.00 °C.

In turn, `*CC(*)C(=O)OC1CCCCCCCCCCC1` (repeat unit) came in with a glass transition temperature of 37.00 °C.

The compound `*CC(*)C(=O)OCC(F)(F)C(F)(F)C(F)(F)C(F)(F)C(F)(F)F` (repeat unit) registered a glass transition temperature of -39.00 °C.

As to `*CC(*)C(=O)OCC(F)(F)C(F)(F)C(F)(F)F` (repeat unit), the glass transition temperature was -30.00 °C.

Turning to `*CC(*)C(=O)OCC(F)(F)C(F)(F)OC(F)(F)C(F)(F)F` (repeat unit), the glass transition temperature was -49.00 °C.

For the compound `*CC(*)C(=O)OCC(F)(F)F` (repeat unit), the glass transition temperature turned out to be 3.10 °C.

Compound `*CC(*)C(=O)OCC1(CC)COC(c2ccccc2)OC1` (repeat unit) returned a glass transition temperature of 50.00 °C.

Compound `*CC(*)C(=O)OCCC#N` (repeat unit) registered a glass transition temperature of 4.00 °C.

Regarding `*CC(*)C(=O)OCCC(C)OC` (repeat unit), the glass transition temperature was -56.00 °C.

`*CC(*)C(=O)OCCC(F)(F)C(F)(F)C(F)(F)C(F)(F)C(F)(F)C(F)(F)C(F)(F)C(F)(F)F` (repeat unit) showed a glass transition temperature of 52.00 °C.

Consider `*CC(*)C(=O)OCCCCCC` (repeat unit), for which the glass transition temperature is -57.00 °C.

`*CC(*)C(=O)OCCCCCCC` (repeat unit): the glass transition temperature was -60.00 °C.

As to `*CC(*)C(=O)OCCCCCCCCCCCOc1ccc(C(=O)Oc2ccc(-c3ccc(OC(C)CCCCCC)cc3)cc2)cc1` (repeat unit), the glass transition temperature came to 50.00 °C.

As to `*CC(*)C(=O)OCCCCCCCOC(=O)c1ccc(OC(=O)c2ccc(C#N)cc2)cc1` (repeat unit), the glass transition temperature came to 20.00 °C.

`*CC(*)C(=O)OCCCCCOC(=O)c1ccc(OC(=O)c2ccc(C#N)cc2)cc1` (repeat unit): the glass transition temperature amounted to 30.00 °C.

The compound `*CC(*)C(=O)OCCCCOC(=O)c1ccc(OC(=O)c2ccc(C#N)cc2)cc1` (repeat unit) yielded a glass transition temperature of 40.00 °C.

Take `*CC(*)C(=O)OCCCCOc1ccc(/N=N/c2ccc([N+](=O)[O-])cc2)cc1` (repeat unit): the glass transition temperature came to 36.70 °C.

For the compound `*CC(*)C(=O)OCCCOCC` (repeat unit), the glass transition temperature was -61.50 °C.

As for `*CC(*)C(=O)OCCCOc1ccc(-c2ccc(C#N)cc2)cc1` (repeat unit), the glass transition temperature worked out at 54.2 °C.

Compound `*CC(*)C(=O)OCCCOc1ccc(/N=N/c2ccc([N+](=O)[O-])cc2)cc1` (repeat unit) displayed a glass transition temperature of 45.60 °C.

In the case of `*CC(*)C(=O)OCCCSC` (repeat unit), the glass transition temperature is -65.00 °C.

The compound `*CC(*)C(=O)OCCCn1c2ccccc2c2ccccc21` (repeat unit) displayed a glass transition temperature of 83.00 °C.

As for `*CC(*)C(=O)OCCN(C)C` (repeat unit), the glass transition temperature is -39.00 °C.

`*CC(*)C(=O)OCCO` (repeat unit) came in with a glass transition temperature of 20.70 °C.

`*CC(*)C(=O)OCCOC(=O)c1cc([N+](=O)[O-])cc([N+](=O)[O-])c1` (repeat unit) returned a glass transition temperature of 60.80 °C.

Compound `*CC(*)C(=O)OCCOCC` (repeat unit) displayed a glass transition temperature of -50.00 °C.

Turning to `*CC(*)C(=O)OCCOCC1(CC)COC1` (repeat unit), the glass transition temperature was -16.00 °C.

As to `*CC(*)C(=O)OCCOCCOC(F)(F)C(F)F` (repeat unit), the glass transition temperature is -40.00 °C.

As to `*CC(*)C(=O)OCCOc1ccc(C(=O)Oc2ccc(OC(=O)c3ccc(OCCCCC)cc3)cc2)cc1` (repeat unit), the glass transition temperature came to 46.00 °C.

`*CC(*)C(=O)OCCOc1ccc(C(C)(C)c2ccc(OCCO)cc2)cc1` (repeat unit) returned a glass transition temperature of 22.00 °C.

`*CC(*)C(=O)OCCSC` (repeat unit): the glass transition temperature was -60.00 °C.

As for `*CC(*)C(=O)OCCSCC` (repeat unit), the glass transition temperature is -71.00 °C.

`*CC(*)C(=O)OCCc1ccccc1` (repeat unit) returned a glass transition temperature of -3.00 °C.

In the case of `*CC(*)C(=O)OCc1c(Br)c(Br)c(Br)c(Br)c1Br` (repeat unit), the glass transition temperature amounted to 181.00 °C.

`*CC(*)C(=O)Oc1c(Cl)c(Cl)c(Cl)c(Cl)c1Cl` (repeat unit) returned a glass transition temperature of 145.00 °C.

For the compound `*CC(*)C(=O)Oc1c(F)c(F)c(F)c(F)c1F` (repeat unit), the glass transition temperature is 64.00 °C.

Compound `*CC(*)C(=O)Oc1cc(C)cc(C)c1` (repeat unit) came in with a glass transition temperature of 54.00 °C.

The compound `*CC(*)C(=O)Oc1ccc(C(=O)OCC)cc1` (repeat unit) had a glass transition temperature of 37.00 °C.

With `*CC(*)C(=O)Oc1ccc(C(=O)OCCCC)cc1` (repeat unit), the glass transition temperature was determined as 13.00 °C.

In turn, `*CC(*)C(=O)Oc1ccc(C(=O)OCc2ccccc2)cc1` (repeat unit) displayed a glass transition temperature of 16.2 °C.

In turn, `*CC(*)C(=O)Oc1ccc(Cl)cc1` (repeat unit) came in with a glass transition temperature of 330.00 °C.

`*CC(*)C(=O)Oc1ccc([N+](=O)[O-])cc1` (repeat unit) yielded a glass transition temperature of 73.30 °C.

`*CC(*)C(=O)Oc1cccc(C(=O)OC)c1` (repeat unit) showed a glass transition temperature of 38.00 °C.

Regarding `*CC(*)C(=O)Oc1ccccc1C` (repeat unit), the glass transition temperature worked out at 51.50 °C.

For `*CC(*)C(=O)c1ccc(C(C)(C)C)cc1` (repeat unit), the glass transition temperature is 103.50 °C.

Consider `*CC(*)C(=O)c1ccc(C)c(C)c1` (repeat unit), for which the glass transition temperature came out at 42.00 °C.

In the case of `*CC(*)C(=O)c1ccc(CC)cc1` (repeat unit), the glass transition temperature stood at 49.2 °C.

`*CC(*)C(=O)c1ccc(Cl)cc1` (repeat unit) gave a glass transition temperature of 63.00 °C.

The compound `*CC(*)C(=O)n1c2ccccc2c2ccccc21` (repeat unit) yielded a glass transition temperature of 50.10 °C.

In turn, `*CC(*)C1CCC(C(C)(C)C)CC1` (repeat unit) displayed a glass transition temperature of 131.00 °C.

`*CC(*)C1CCCC(C)C1` (repeat unit) registered a glass transition temperature of 141.00 °C.

Regarding `*CC(*)CC(C)(C)C` (repeat unit), the glass transition temperature worked out at 190.00 °C.

Consider `*CC(*)CC(C)C` (repeat unit), for which the glass transition temperature is 35.20 °C.

Compound `*CC(*)CC1CCCCC1` (repeat unit) showed a glass transition temperature of 75.00 °C.

Compound `*CC(*)CCCCCCCC` (repeat unit) gave a glass transition temperature of -35.00 °C.

`*CC(*)CCCI` (repeat unit): the glass transition temperature was 30.00 °C.

Turning to `*CC(*)CC[Si](C)(C)C` (repeat unit), the glass transition temperature worked out at 132.00 °C.

For `*CC(*)CNc1ccc([N+](=O)[O-])cc1C` (repeat unit), the glass transition temperature turned out to be 151.00 °C.

`*CC(*)CO` (repeat unit) came in with a glass transition temperature of 36.00 °C.

As to `*CC(*)C[Si](C)(C)C` (repeat unit), the glass transition temperature came out at 114.00 °C.

Turning to `*CC(*)N` (repeat unit), the glass transition temperature is 57.00 °C.

`*CC(*)N1CCCC1=S` (repeat unit) gave a glass transition temperature of 80.00 °C.

`*CC(*)N1CCCCCC1=O` (repeat unit) yielded a glass transition temperature of 174.60 °C.

Turning to `*CC(*)NC(=O)OC(C)(C)C` (repeat unit), the glass transition temperature is 120.00 °C.

Take `*CC(*)OC(=O)C(C)(C)C(C)C(C)C` (repeat unit): the glass transition temperature came out at 55.00 °C.

Compound `*CC(*)OC(=O)C(C)(CC)C(C)(C)C` (repeat unit) showed a glass transition temperature of 120.00 °C.

With `*CC(*)OC(=O)C(F)(F)C(F)(F)C(F)(F)C(F)(F)C(F)(F)C(F)(F)C(F)(F)C(F)(F)C(F)(F)F` (repeat unit), the glass transition temperature is -18.00 °C.

Take `*CC(*)OC(=O)C(F)(F)C(F)(F)C(F)(F)C(F)(F)C(F)(F)F` (repeat unit): the glass transition temperature was -9.00 °C.

`*CC(*)OC(=O)C(F)(F)C(F)(F)F` (repeat unit): the glass transition temperature was 42.00 °C.

In turn, `*CC(*)OC(=O)C1(C)CCCCC1` (repeat unit) returned a glass transition temperature of 86.00 °C.

`*CC(*)OC(=O)C1CCCC1` (repeat unit): the glass transition temperature is 36.00 °C.

For the compound `*OC(C)C#CC#CC(C)OC(=O)c1ccc(C(*)=O)cc1` (repeat unit), the glass transition temperature turned out to be 133.00 °C.

As to `*O[Si](C)(C)C#C[Si](C)(C)C#C[Si](C)(C)C#C[Si](C)(C)C#C[Si](C)(C)C#C[Si](*)(C)C` (repeat unit), the glass transition temperature is -16.10 °C.

Compound `*O[Si](C)(C)C#C[Si](C)(C)C#C[Si](C)(C)C#C[Si](C)(C)C#C[Si](C)(C)C#C[Si](C)(C)C#C[Si](*)(C)C` (repeat unit) came in with a glass transition temperature of -12.60 °C.
